Experimental data published in patent US20240049994A1, “ONE-TOUCH FINGERTIP SWEAT SENSOR AND PERSONALIZED DATA PROCESSING FOR RELIABLE PREDICTION OF BLOOD BIOMARKER CONCENTRATIONS” (THE REGENTS OF THE UNIVERSITY OF CALIFORNIA, priority 2021, published 2024).

Columns and labels:
tyrosinase enzyme = assay: Selectivity of tyrosinase-modified L-Dopa sensor against C-Dopa; format: biochemical
Excerpt: L-Dopa detection is achieved through coupling the tyrosinase enzyme-catalyzed L-Dopa oxidation (catecholase activity) and the subsequent electrochemical reduction of the corresponding quinone product, dopaquinone, at low potentials (FIG. 6A). The formed reaction cycle not only enhances the sensitivity through amplification of the resulting current signal but also prevents electrode fouling by inhibiting the spontaneous polymerization reactions of the unstable quinone molecules. Tyrosinase enzyme is simply immobilized on the surface of screen-printed carbon electrodes, followed by crosslinking with glutaraldehyde to prevent leaching of the enzyme (FIG. 6A). To establish the optimal potential for the L-Dopaquinone reduction, the amperometric signals obtained at various potentials, ranging from −0.1 to −0.4 V (vs. internal pseudo-reference Ag/AgCl), are compared upon addition of 10 μM L-Dopa. […] Thus, optimal potential of −0.3 V is chosen and used for subsequent in-vitro and on-body experiments. […] The reproducibility of the L-Dopa sensor is evaluated by measuring 10 μM L-Dopa concentration on six different electrodes sensors.
The performance of the sensor toward following the L-Dopa pharmacokinetics is characterized on healthy patients following the administration of L-Dopa/C-Dopa (100:25 mg) pills which are common oral medication for PD patients. […]

[1] = Touch-based fingertip sweat L-Dopa monitoring after L-Dopa/C-Dopa pill intake; format: in vivo, human; conditions: oral L-Dopa/C-Dopa (100:25 mg) pill
Excerpt: The disclosed technology can be implemented in some embodiments to provide an individualized therapeutic drug monitoring for PD patients, centered on dynamic non-invasive tracking pharmacokinetic profiles of L-Dopa levels in the secreted sweat upon intake of standard pill formulations. Sweat is a non-invasively retrievable biofluid containing rich information of trace-level, health-related biochemical markers. Wearable sweat sensors have shown enormous potential toward monitoring of physiological heath status (e.g., hydration), disease diagnosis and management (e.g., diabetes and gout), and therapeutic drug monitoring (e.g., pain management). However, the presence of skin as a mechanical barrier prevents an uninterrupted access to this information-rich biofluid, and thus a triggering system (i.e., physical exercise, thermal stimulation, oriontophoresis) is necessary to provide continuous access to sweat sample. […] Taking advantage of the high density of eccrine sweat glands (˜400 glands cm^2) and the consequent generation of high sweat rates, finger touch-based biosensors have recently been reported for the detection of key sweat biomarkers (e.g., glucose, vitamin C, and cortisol). Leveraging such natural thermoregulatory sweat sample, a finger-touch L-Dopa biosensor based on some embodiments of the disclosed technology can continuously monitor the dynamic profile of sweat L-Dopa upon intake of standard anti-Parkinsonian medication including L-Dopa-carbidopa (100:25 mg) (FIG. 5A(a)). […]
To gain further insight into the personalized body responses upon medication intake, the performance of the finger touch biosensor is evaluated on three different individuals while taking the same medication under identically kept conditions (FIG. 7 (a)-(c)). […]

[2] = Pharmacokinetic correlation of fingertip sweat and capillary blood L-Dopa profiles; format: in vivo, human; conditions: healthy subjects, after L-Dopa/C-Dopa pill, measured every 10 min
Excerpt: While the blood plasma is the ‘gold standard’ matrix for therapeutic monitoring of L-Dopa, this analysis method relies on LC-MS centralized instruments. To further confirm the reliability of the developed protocol based on touch-based sweat L-Dopa detection, the feasibility of data validation between sweat and blood samples is investigated. Two subjects performed fingertip sweat sensing in parallel to the electrochemical measurements of the finger pricked capillary blood samples, using the enzymatic L-Dopa sensor. As shown in FIG. 62 (A)-(B), the sweat sensor is able to probe and detect successfully L-Dopa fluctuations in microliter blood samples similar to the fingertip natural sweat sample. Similar temporal profiles are observed for blood and sweat experiments, with ˜10 min lag time. […] Additionally, control experiments are also carried out without pill intake (FIG. 62 (C)) and using non-enzymatic electrode (FIG. 62 (D)). In both control experiments, the current signal remained small and unchanged, which indicates the signal specificity of the fingertip touch-based sweat sensing procedure.

| current relative to L-Dopa (tyrosinase enzyme; a quarter of the L-Dopa concentration (4:1 ratio as in the pill)) [%] | overall response relative to L-Dopa (tyrosinase enzyme; same concentration as L-Dopa, amperometry at -0.3 V) [%] | time at which L-Dopa current signal starts to increase after pill intake ([1]; healthy subject) [min] | time at which sweat L-Dopa signal decreases back to background level after pill intake ([1]; healthy subject) | time of peak maximum of sweat L-Dopa signal after pill intake ([1]; healthy subjects, measured every 10 min) [min] | lag time between sweat and capillary blood L-Dopa temporal profiles [2] [min] | SMILES |
| --- | --- | --- | --- | --- | --- | --- |
| ~6 | ~20 | – | – | – | – | C[C@@](Cc1ccc(O)c(O)c1)(NN)C(=O)O [C-Dopa, carbidopa] |
| – | – | 10 | one hour | 30 | ~10 | N[C@@H](Cc1ccc(O)c(O)c1)C(=O)O [L-Dopa, Levodopa] |
